Earlier results, collected in paper PMC12424150 (Drug Delivery, 2025).

Experiments:
[1] = parameters: method as in Wharton et al. [2023]; Lingvay et al. [2024]; conditions: ref Wharton et al. [2023]; Lingvay et al. [2024]
[2] = ref Dhillon [2018]

| Compound | average weight loss [1] | half-life in humans [2] |
| --- | --- | --- |
| Glucagon-like peptide-1 [GLP-1] | up to 15% | – |
| CC[C@H](C)[C@H](NC(=O)[C@H](Cc1ccccc1)NC(=O)[C@H](CCC(=O)O)NC(=O)[C@H](CCCCNC(=O)COCCOCCNC(=O)COCCOCCNC(=O)CC[C@H](NC(=O)CCCCCCCCCCCCCCCCC(=O)O)C(=O)O)NC(=O)[C@H](C)NC(=O)[C@H](C)NC(=O)[C@H](CCC(N)=O)NC(=O)CNC(=O)[C@H](CCC(=O)O)NC(=O)[C@H](CC(C)C)NC(=O)[C@H](Cc1ccc(O)cc1)NC(=O)[C@H](CO)NC(=O)[C@H](CO)NC(=O)[C@@H](NC(=O)[C@H](CC(=O)O)NC(=O)[C@H](CO)NC(=O)[C@@H](NC(=O)[C@H](Cc1ccccc1)NC(=O)[C@@H](NC(=O)CNC(=O)[C@H](CCC(=O)O)NC(=O)C(C)(C)NC(=O)[C@@H](N)Cc1cnc[nH]1)[C@@H](C)O)[C@@H](C)O)C(C)C)C(=O)N[C@@H](C)C(=O)N[C@@H](Cc1c[nH]c2ccccc12)C(=O)N[C@@H](CC(C)C)C(=O)N[C@H](C(=O)N[C@@H](CCCNC(=N)N)C(=O)NCC(=O)N[C@@H](CCCNC(=N)N)C(=O)NCC(=O)O)C(C)C [semaglutide] | – | 165 to 183 h |
